In publication PMC10140010 (Investigational New Drugs, 2023):
Values joined by “and” are separate entries in the source; they are usually repeats but may differ in a detail not shown here. Equal values may be shown once. Read-outs that look alike come from different tables or passages of the source.

How the values were obtained:
AUR2 = AUR2 (Homo sapiens, UniProt O14965); assay: Z'-LYTE kinase selectivity; assay type: biochemical
CYP2B6 = assay: Hepatic enzyme induction in human hepatocytes (gene expression); assay type: in vitro ADME
OAT3 = assay: Uptake inhibitor investigation in HEK293 cells expressing transporter; assay type: in vitro ADME
EGFR wild type = EGFR wild type (Homo sapiens, UniProt P00533); assay: Z'-LYTE kinase selectivity; details: read-out: IC50 EGFR wild type
OCT2 [1] = target: T1, OCT2 (Homo sapiens, UniProt O15244); assay: Uptake substrate investigation in HEK293 cells expressing transporter; assay type: in vitro ADME; details: for Uptake transport activity, Mean / Ratio of uptake transit activity / Uptake transport activity, Net value: Suppl. Table 11; for Ratio of uptake transit activity / Uptake transport activity, Net value: OCT2-293 vs MOCK293
T1 construct: No ESH9G27; host or cells: HEK293
T1 sequence (O15244 1-555): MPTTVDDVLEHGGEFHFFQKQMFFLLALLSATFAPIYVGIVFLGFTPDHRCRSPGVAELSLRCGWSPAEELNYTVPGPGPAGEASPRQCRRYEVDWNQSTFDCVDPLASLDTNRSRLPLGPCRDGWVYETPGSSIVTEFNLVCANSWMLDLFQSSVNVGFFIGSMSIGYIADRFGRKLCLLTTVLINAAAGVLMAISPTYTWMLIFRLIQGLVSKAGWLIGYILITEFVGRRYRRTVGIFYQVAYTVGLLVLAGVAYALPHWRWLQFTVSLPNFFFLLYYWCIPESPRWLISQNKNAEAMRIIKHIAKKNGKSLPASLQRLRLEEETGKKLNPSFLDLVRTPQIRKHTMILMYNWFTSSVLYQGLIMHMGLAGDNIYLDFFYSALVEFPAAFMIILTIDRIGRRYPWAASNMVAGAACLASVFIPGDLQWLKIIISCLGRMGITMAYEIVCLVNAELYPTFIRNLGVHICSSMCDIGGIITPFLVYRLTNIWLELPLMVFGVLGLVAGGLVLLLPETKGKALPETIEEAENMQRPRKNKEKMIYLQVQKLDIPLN

MATE1 = target: T2, MATE1 (Homo sapiens, UniProt Q96FL8)
T2 sequence (Q96FL8 1-570): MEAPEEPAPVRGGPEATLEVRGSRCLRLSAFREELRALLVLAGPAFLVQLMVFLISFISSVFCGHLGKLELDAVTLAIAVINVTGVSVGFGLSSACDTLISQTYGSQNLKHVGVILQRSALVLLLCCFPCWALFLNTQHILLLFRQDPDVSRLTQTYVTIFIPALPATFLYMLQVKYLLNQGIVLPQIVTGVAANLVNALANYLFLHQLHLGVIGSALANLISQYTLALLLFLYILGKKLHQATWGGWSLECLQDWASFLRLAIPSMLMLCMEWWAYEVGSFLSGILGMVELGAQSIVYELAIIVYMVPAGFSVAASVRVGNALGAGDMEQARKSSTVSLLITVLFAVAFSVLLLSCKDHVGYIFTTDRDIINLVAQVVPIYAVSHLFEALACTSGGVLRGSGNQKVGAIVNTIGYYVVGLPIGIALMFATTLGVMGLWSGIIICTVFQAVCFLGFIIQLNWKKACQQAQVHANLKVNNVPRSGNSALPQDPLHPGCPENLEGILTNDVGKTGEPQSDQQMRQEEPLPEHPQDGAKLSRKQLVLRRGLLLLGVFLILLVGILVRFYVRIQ
Procedure: Using a stably transfected cell line of HEK293 expressing transporter OATP1B1, OATP1B3 or OCT2, formal substrate investigation tests were performed for three concentration gradients (30 µM, 3 µM, 0.3 µM) of iruplinalkib.

CYP3A4 = assay: Hepatic enzyme induction in human hepatocytes (gene expression); assay type: in vitro ADME
Procedure: (§1) Human hepatocytes derived from three donors were used for evaluating for hepatic enzyme inducing activity. […] The gene expression related to cytochrome P450 isoenzyme CYP3A4 in hepatocytes of one of the three donors increased with iruplinalkib 1 µM.

EGFR^L858R/T790M = EGFR^L858R/T790M (Homo sapiens, UniProt P00533, L858R/T790M); assay: HTRF kinase activity assay
Procedure: (§2) After the kinase proteins, Ulight-peptide species, adenosine triphosphate (ATP), and compound were mixed, the reaction was carried out at room temperature. Reactions were quenched by the addition of ethylene diamine tetraacetic acid buffer containing Eu antibody and XL665-streptavidin at the indicated time points. Plate reading was performed using an Envision (Perkin Elmer, MA, USA) multifunctional microplate reader.

OAT1 = assay: Uptake inhibitor investigation in HEK293 cells expressing transporter; assay type: in vitro ADME
ALK^WT = ALK^WT (Homo sapiens, UniProt Q9UM73); assay: HTRF kinase activity assay; assay type: biochemical
Procedure: as §2

OCT2 [2] = target: T1, OCT2; assay: Uptake inhibitor investigation in HEK293 cells expressing transporter; assay type: in vitro ADME; details: metformin as the substrate
FGFR1 = FGFR1 (Homo sapiens, UniProt P11362); assay: Z'-LYTE kinase selectivity
CYP1A2 = assay: Hepatic enzyme induction in human hepatocytes; assay type: in vitro ADME; details: 10 µM, human hepatocytes from three donors
Procedure: as §1

P-gp/BCRP/MRP2 = assay: ABC efflux transporter substrate investigation on Caco-2 cells; details: for efflux ratio at 0.5 µM / efflux ratio at 5 µM / efflux ratio at 50 µM: human
[3] = 10 µM, human hepatocytes from three donors
[4] = human, HEK293 cells expressing OAT3, probe ATV, 1 μM, read-out: Inhibition rate
[5] = human, HEK293 cells expressing OAT1, probe ATV, 1 μM, read-out: Inhibition rate

Chain of ALK^WT (Q9UM73 19-1620): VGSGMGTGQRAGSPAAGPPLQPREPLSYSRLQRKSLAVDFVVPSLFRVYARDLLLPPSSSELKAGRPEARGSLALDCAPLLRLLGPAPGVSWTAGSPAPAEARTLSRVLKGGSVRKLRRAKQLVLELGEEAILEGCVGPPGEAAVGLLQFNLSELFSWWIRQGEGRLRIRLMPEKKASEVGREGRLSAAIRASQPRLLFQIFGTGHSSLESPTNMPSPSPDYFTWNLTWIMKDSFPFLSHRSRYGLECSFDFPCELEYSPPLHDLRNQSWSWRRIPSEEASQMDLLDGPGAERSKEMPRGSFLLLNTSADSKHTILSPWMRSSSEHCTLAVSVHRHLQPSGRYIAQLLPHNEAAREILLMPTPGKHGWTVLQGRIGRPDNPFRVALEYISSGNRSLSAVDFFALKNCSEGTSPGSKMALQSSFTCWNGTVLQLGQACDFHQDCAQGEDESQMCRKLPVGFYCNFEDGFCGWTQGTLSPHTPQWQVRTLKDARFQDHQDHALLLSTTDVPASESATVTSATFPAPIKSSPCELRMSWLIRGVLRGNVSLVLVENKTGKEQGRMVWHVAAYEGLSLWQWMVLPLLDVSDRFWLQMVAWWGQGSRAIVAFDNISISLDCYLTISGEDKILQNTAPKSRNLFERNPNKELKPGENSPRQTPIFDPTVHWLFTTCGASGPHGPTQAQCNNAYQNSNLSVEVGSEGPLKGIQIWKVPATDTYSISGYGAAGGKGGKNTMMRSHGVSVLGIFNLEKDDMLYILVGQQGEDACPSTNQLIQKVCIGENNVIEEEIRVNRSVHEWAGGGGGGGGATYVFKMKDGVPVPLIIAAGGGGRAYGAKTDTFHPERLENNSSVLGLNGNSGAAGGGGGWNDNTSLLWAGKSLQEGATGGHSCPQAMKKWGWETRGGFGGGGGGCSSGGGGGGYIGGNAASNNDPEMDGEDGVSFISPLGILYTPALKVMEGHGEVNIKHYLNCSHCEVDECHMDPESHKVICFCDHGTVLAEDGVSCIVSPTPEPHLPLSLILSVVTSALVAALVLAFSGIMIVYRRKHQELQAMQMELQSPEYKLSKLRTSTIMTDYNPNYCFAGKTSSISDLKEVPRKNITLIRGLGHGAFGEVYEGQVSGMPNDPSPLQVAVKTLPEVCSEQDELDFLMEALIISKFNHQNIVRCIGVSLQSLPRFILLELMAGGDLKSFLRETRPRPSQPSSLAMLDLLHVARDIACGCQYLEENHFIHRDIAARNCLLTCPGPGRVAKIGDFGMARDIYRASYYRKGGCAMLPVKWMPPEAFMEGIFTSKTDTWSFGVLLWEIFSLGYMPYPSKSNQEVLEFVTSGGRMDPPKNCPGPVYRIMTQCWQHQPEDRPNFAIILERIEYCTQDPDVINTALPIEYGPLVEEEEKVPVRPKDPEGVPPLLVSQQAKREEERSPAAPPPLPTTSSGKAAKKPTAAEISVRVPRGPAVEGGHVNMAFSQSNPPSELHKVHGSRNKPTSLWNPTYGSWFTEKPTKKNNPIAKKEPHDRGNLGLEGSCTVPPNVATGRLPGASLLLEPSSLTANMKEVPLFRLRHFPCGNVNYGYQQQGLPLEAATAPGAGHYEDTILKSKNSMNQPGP
Chain of AUR2 (O14965 whole entry): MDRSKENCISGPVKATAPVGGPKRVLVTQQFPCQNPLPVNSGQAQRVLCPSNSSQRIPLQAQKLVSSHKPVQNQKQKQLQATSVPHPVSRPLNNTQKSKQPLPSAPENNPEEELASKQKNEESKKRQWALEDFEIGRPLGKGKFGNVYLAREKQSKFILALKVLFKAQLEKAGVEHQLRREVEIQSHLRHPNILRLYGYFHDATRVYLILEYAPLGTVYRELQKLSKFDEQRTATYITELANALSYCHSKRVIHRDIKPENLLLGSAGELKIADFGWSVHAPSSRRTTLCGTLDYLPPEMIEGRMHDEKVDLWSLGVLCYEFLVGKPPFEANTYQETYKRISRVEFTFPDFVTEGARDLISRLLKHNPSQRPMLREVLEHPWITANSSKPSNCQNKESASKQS
Chain of EGFR^L858R/T790M (P00533 25-1210 T790M/L858R): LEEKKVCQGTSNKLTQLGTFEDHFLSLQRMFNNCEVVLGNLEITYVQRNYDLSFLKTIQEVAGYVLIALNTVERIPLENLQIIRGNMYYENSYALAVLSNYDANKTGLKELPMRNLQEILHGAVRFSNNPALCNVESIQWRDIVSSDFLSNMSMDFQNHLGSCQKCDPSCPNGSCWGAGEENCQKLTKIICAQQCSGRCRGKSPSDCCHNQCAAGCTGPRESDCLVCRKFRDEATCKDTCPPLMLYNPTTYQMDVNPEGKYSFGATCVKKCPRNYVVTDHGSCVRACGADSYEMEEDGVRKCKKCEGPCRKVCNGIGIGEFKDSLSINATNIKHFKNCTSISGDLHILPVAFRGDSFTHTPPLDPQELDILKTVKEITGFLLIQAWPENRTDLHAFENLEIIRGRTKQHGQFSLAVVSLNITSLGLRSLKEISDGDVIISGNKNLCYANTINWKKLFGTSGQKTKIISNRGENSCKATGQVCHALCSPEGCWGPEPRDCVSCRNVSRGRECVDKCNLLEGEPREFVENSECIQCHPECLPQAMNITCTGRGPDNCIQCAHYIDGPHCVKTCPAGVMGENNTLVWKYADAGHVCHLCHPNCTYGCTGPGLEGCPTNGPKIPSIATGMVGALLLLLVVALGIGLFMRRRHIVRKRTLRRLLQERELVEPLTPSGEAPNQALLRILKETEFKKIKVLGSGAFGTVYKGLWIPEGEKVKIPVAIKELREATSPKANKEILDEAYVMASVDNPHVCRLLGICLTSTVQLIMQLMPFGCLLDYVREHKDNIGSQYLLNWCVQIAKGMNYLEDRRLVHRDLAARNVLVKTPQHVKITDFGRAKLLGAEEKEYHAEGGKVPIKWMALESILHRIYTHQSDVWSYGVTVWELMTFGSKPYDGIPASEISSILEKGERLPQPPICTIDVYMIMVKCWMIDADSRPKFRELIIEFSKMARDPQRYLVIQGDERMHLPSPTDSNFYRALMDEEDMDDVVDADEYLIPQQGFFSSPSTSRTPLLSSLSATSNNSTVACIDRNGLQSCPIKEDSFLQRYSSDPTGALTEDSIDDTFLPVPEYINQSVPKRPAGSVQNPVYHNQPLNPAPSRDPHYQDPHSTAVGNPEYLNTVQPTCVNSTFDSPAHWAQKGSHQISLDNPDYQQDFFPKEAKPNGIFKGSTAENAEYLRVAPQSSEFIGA
Chain of FGFR1 (P11362 22-822): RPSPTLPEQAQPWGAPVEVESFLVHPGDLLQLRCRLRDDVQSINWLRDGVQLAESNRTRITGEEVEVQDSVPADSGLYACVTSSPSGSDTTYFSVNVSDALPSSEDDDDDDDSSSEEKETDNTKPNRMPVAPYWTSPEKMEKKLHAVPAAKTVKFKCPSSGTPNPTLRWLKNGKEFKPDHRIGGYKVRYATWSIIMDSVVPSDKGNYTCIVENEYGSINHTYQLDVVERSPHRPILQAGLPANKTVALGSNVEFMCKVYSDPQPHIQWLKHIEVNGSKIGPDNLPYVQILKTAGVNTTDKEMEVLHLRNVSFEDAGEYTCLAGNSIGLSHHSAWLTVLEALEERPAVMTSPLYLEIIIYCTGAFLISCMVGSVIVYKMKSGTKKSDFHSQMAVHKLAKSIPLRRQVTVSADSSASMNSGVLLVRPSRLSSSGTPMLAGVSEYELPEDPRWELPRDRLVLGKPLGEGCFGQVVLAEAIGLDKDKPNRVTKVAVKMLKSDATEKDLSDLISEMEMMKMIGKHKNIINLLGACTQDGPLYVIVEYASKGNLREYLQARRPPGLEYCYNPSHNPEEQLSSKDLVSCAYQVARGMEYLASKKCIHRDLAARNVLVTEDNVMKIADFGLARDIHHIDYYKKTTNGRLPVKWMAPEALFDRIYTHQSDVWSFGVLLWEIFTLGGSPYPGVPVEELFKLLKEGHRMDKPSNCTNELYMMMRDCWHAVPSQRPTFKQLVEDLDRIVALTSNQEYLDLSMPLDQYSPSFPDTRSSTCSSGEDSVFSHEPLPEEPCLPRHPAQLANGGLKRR

COc1cc(N2CCC3(CCN(C)CC3)CC2)ccc1Nc1ncc(Cl)c(Nc2ccccc2P(C)(C)=O)n1 [Iruplinalkib]
IC50 (AUR2): 1080 ± 106 nM
inducer of CYP2B6 (CYP2B6; [3]): not an inducer
CYP2B6 gene expression, folds of expression (CYP2B6; donor 1, 0.1 µM): 0.798 fold
CYP2B6 gene expression, folds of expression (CYP2B6; donor 1, 1 µM): 1.36 fold
CYP2B6 gene expression, folds of expression (CYP2B6; donor 1, 10 µM): 2.62 fold
CYP2B6 gene expression, folds of expression (CYP2B6; donor 2, 0.1 µM): 0.862 fold
CYP2B6 gene expression, folds of expression (CYP2B6; donor 2, 1 µM): 0.926 fold
CYP2B6 gene expression, folds of expression (CYP2B6; donor 2, 10 µM): 4.02 fold
CYP2B6 gene expression, folds of expression (CYP2B6; donor 3, 0.1 µM): 0.526 fold
CYP2B6 gene expression, folds of expression (CYP2B6; donor 3, 1 µM): 1.13 fold
CYP2B6 gene expression, folds of expression (CYP2B6; donor 3, 10 µM): 0.602 fold
inhibitory effect on OAT3 (OAT3; HEK293): no significant inhibitory effect
inhibition at 0.5 μM (OAT3; [4]): 26.7%
inhibition at 5 μM (OAT3; [4]): 22.5%
inhibition at 50 μM (OAT3; [4]): 31.9%
IC50 (EGFR wild type): 35 nM
uptake transport activity ratio, OCT2 (OCT2 [1]; 30 µM, 3 µM, 0.3 µM, HEK293): less than two
uptake substrate of OCT2 (OCT2 [1]; HEK293): not an uptake substrate
Uptake transport activity, Mean (OCT2 [1]; MOCK293 (OCT2 set), 0.3 μM): 7.280 pmol/mg protein/min
Uptake transport activity, Mean (OCT2 [1]; MOCK293 (OCT2 set), 3 μM): 80.35 pmol/mg protein/min
Uptake transport activity, Mean (OCT2 [1]; MOCK293 (OCT2 set), 30 μM): 999.8 pmol/mg protein/min
Uptake transport activity, Mean (OCT2 [1]; OCT2-293, 0.3 μM): 8.178 pmol/mg protein/min
Uptake transport activity, Mean (OCT2 [1]; OCT2-293, 3 μM): 88.23 pmol/mg protein/min
Uptake transport activity, Mean (OCT2 [1]; OCT2-293, 30 μM): 1165.9 pmol/mg protein/min
Ratio of uptake transit activity (OCT2 [1]; 0.3 μM): 1.12
Uptake transport activity, Net value (OCT2 [1]; 0.3 μM): 0.90 pmol/mg protein/min
Ratio of uptake transit activity (OCT2 [1]; 3 μM): 1.10
Uptake transport activity, Net value (OCT2 [1]; 3 μM): 7.88 pmol/mg protein/min
Ratio of uptake transit activity (OCT2 [1]; 30 μM): 1.17
Uptake transport activity, Net value (OCT2 [1]; 30 μM): 166.05 pmol/mg protein/min
Uptake transport activity, Net value (MATE1; 0.5 μM): 532.9 pmol/mg protein/min
Uptake transport activity, Net value (MATE1; 5 μM): 55.01 pmol/mg protein/min
Uptake transport activity, Net value (MATE1; 50 μM): -114.5 pmol/mg protein/min
inducer of CYP3A4 (CYP3A4; [3]): not an inducer
induction multiples of CYP3A4 gene expression (CYP3A4; donor 1, 0.1 µM): 0.621 fold
induction multiples of CYP3A4 gene expression (CYP3A4; donor 1, 1 µM): 2.99 fold
induction multiples of CYP3A4 gene expression (CYP3A4; donor 1, 10 µM): 2.38 fold
induction multiples of CYP3A4 gene expression (CYP3A4; donor 2, 0.1 µM): 0.879 fold
induction multiples of CYP3A4 gene expression (CYP3A4; donor 2, 1 µM): 1.80 fold
induction multiples of CYP3A4 gene expression (CYP3A4; donor 2, 10 µM): 2.81 fold
induction multiples of CYP3A4 gene expression (CYP3A4; donor 3, 0.1 µM): 0.964 fold
induction multiples of CYP3A4 gene expression (CYP3A4; donor 3, 1 µM): 9.36 fold
induction multiples of CYP3A4 gene expression (CYP3A4; donor 3, 10 µM): 1.86 fold
IC50 (EGFR^L858R/T790M): 16.7 ± 8.11 nM
inhibitor of OAT1 (OAT1; HEK293): can not be its inhibitor
inhibition at 0.5 μM (OAT1; [5]): 26.7%
inhibition at 5 μM (OAT1; [5]): 22.5%
inhibition at 50 μM (OAT1; [5]): 31.9%
IC50 (ALK^WT): 5.38 nM and < 10 nM
inhibition of OCT2 uptake (OCT2 [2]): only a weak inhibitory effect
IC50 (FGFR1): 249 ± 71 nM
inducer of CYP1A2 (CYP1A2): not an inducer
substrate of BCRP (P-gp/BCRP/MRP2; Caco-2): not for breast cancerresistance protein (BCRP)
substrate of P-gp (P-gp/BCRP/MRP2; Caco-2): transported substrate
Exhaust Ratio Mean (P-gp/BCRP/MRP2; Iruplinalkib 0.5 µM as substrate, with Ko143 10 µM): 20.95
Exhaust Ratio Mean (P-gp/BCRP/MRP2; Iruplinalkib 5 µM as substrate, with Ko143 10 µM): 26.14
Exhaust Ratio Mean (P-gp/BCRP/MRP2; Iruplinalkib 5 µM as substrate, with Verapamil 50 µM): 2.626
efflux ratio at 0.5 µM (P-gp/BCRP/MRP2; Caco-2): 20.3
efflux ratio at 5 µM (P-gp/BCRP/MRP2; Caco-2): 84.2
efflux ratio at 50 µM (P-gp/BCRP/MRP2; Caco-2): 8.02
efflux ratio at 0.5 µM (P-gp/BCRP/MRP2; Caco-2, with Elacridar 10 µM): 2.81
efflux ratio at 5 µM (P-gp/BCRP/MRP2; Caco-2, with Elacridar 10 µM): 0.605
efflux ratio at 50 µM (P-gp/BCRP/MRP2; Caco-2, with Elacridar 10 µM): 0.614
efflux ratio at 50 µM (P-gp/BCRP/MRP2; Caco-2, with Ko143 10 µM): 9.89
efflux ratio at 0.5 µM (P-gp/BCRP/MRP2; Caco-2, with Verapamil 50 µM): 3.46
efflux ratio at 50 µM (P-gp/BCRP/MRP2; Caco-2, with Verapamil 50 µM): 1.95
